Laboratory results taken from patent US7183320B2, “Benzoylsulfonamides and sulfonylbenzamidines for use as antitumour agents” (Eli Lilly and Company, priority 2002, dated 2007).
pIC50: −log10 of the molar value.

How the values were obtained:
[1] = tested on: HCT116 colon carcinoma cells; assay: HCT116 colon carcinoma cell growth inhibition (WST-1, 72 hr); assay type: cell-based, human; conditions: Homo sapiens, HCT-116, 72 hr exposure
Protocol: HCT116 Colon Carcinoma Cell Growth Inhibition
HCT116 colon carcinoma cells were grown monolayer culture in RPMI 1640 medium supplemented with 10% fetal bovine serum and 1% penicillin-streptomycin (GibcoBRL, Grand Island, N.Y.). HCT116 cells in exponential growth phase were exposed to various concentrations of the test compounds at 37° C. for 72 hr in 5% carbon dioxide/air. After exposure to the agent, the cells were washed with 0.9% phosphate buffered saline. Growth inhibition was determined using WST-1 cell proliferation reagent as described above. The results are expressed as the growth fraction of treated cells compared with control cultures. Representative compounds of the present invention were tested for efficacy against the human colon HCT116 tumor cells.

[2] = tested on: HUMAN SQUAMOUS CELL LUNG CARCINOMA MRI-H165; assay: Early stage human squamous cell lung carcinoma MRI-H165 xenograft (Table XI); assay type: in vivo; conditions: total dose 600 mg/kg: 100 mg/kg/injection IV on days 3–5 and 10–12; Balb/C SCID female mice
Description: (§1) Conventional Murine Tumor and Human Tumor Xenouraft Assays
(§2) Inhibition of tumors transplanted into mice is an accepted procedure for studying the efficacy of antitumor agents (Corbett, et al., In vivo Methods for Screening and Preclinical Testing; Use of rodent solid tumors for drug discovery., In: Anticancer Drug Development Guide: Preclinical Screening, Clinical Trials, and Approval, B. Teicher (ed), Humana Press Inc., Totowa, N.J., Chapter 5, pages 75–99 (1997); (Corbett, et al., Int., J. Parmacog., 33, Supplement, 102–122 (1995)). Murine tumors or human xenographs were implanted essentially as described by Corbett in In vivo Methods for Screening and Preclimical Testing; Use of rodent solid tumors for drug discovery. Briefly, the murine tumor or human xenograph was implanted subcutaneously using either 12-gauge trocar implants or counted number of cells. The location for the trocar insertion is midway between the axillary and inguinal region along the side of the mouse. The trocar is slipped approximately ¾ of an inch subcutaneously up toward the axilla before discharging the tumor fragment, and pinching the skin as the trocar is removed., Alternatively, human tumor cells prepared from a […] of donor tumors (5×10^6 cells) were implanted subcutaneously in a hind-leg of a male or female nude mouse (Charles River). Either a test compound in vehicle or vehicle alone was administered by intravenous bolus injection (iv), intraperitoneal injection (ip), or oral gavage (po). Each treatment group, as well as a group of untreated control animals, consisted of five animals per group in each experiment. Subcutaneous tumor response was monitored by tumor volume measurement performed twice each week over the course of the experiment (60–120 days). Body weights were taken as a general measure of toxicity. The subcutaneous tumor data were analyzed by determining the median tumor weight for each treatment group over the course of the experiment and calculating the tumor growth delay as the difference in days for the treatment versus the control tumors to reach a volume of either 500 or 1000 mm^3.
(§3) The compound of Example 110 was tested against a variety of murine and human tumors substantially as described supra. The parameters measured in each experiment are summarized in the following paragraphs. • Tumor Weight(mg)=(a×b^2)/2 where a=tumor length (mm) and b=tumor width (mm). • Tumor Growth Delay=T−C where T is the median time (days) required for the treatment group tumors to reach a predetermined size, and C is the median time (days) for the control group tumors to reach the same size. Tumor-free survivors are excluded from this calculation, and are tabulated separately (Tumor Free).
(§4) [formula] • where Tumor Growth Delay is as previously defined and Td is tumor volume doubling time (days), estimated from the best fit straight line from a log-linear growth plot of the control group of tumors in exponential growth (100–800 mg range) • % T/C mass—The treatment and control groups are measured when the control group tumors reach approximately 700 to 1200 mg in size (median group). The median tumor weight of each group is determined (including zeros). The T/C value in percent is an indication of antitumor effectiveness. A T/C≦42% is considered significant antitumor activity. A T/C<10% is considered to indicate highly significant antitumor activity. • Body Weight Loss Nadir—A body weight loss nadir (mean of group) of greater than 20% or drug deaths greater than 20% are considered to indicate an excessively toxic dosage in single course trials. • Activity Rating—the Activity Rating is derived from the Log Kill according to the following table: […]

HUMAN BREAST WSU-Br-1 = assay: Upstaged human breast WSU-Br-1 xenograft (Table VIII); assay type: in vivo; conditions: Balb/C SCID female mice
Description: as §1, §2, §3, §4

[3] = tested on: VEGF-induced neoangiogenesis; assay: Rat corneal micropocket assay, VEGF disks; assay type: in vivo; conditions: 160 mg/kg orally by gavage once per day, days 1 through 10; Fisher 344 female rats
Protocol: Rat Corneal Micropocket Assay
Fisher 344 female rats (145–155 grams; Taconic, Inc., Germantown, N.Y.) were anesthesized with acepromazine (2.5 mg/kg, ip) 20 minutes prior to initiation of 2–3% isoflurane/oxygen inhalation. The body temperature was maintained with a circulating hot water pad. The surgery was performed using an ophthalmic operating microscope (OMS.75 Operating Microscope, TopCon Corporation, Japan). A scalpel blade (#15) was used to make a vertical half-thickness linear corneal incision just lateral to the center of the eye. […] A pocket was formed in the cornea using blunt dissection with corneal scissors (Roboz, Rockville, Md.). Nitrocellulose filters ([…], Millipore, Bedford, Mass.) were cut into small disks using a 20 gauge needle punch. The disks were soaked in 2 μl of human VEGF solution ([…]; R&D Systems) or human basic fibroblast growth factor (0.20 μg/μl; R&D Systems) for 10 minutes on ice. Using forceps, the disks impregnated with the angiogenic factor (VEGF or bFGF) were inserted into the corneal pocket so that the disk is firmly covered with corneal epithelium. […] The images were analyzed by converting the area of interest to high contrast black and white reversed image and counting the bright pixels as a determination of the vascular area. […]

[4] = total dose 500 mg/kg: 100 mg/kg/injection IV on days 11–13 and 19–20
[5] = total dose 725 mg/kg: 145 mg/kg/injection IV on days 11–13 and 19–20

O=C(NS(=O)(=O)c1ccccc1)c1ccc(Cl)cc1Cl [Example 110, N-[2,4-dichlorobenzoyl]phenylsulfonamide]
pIC50 [1]: 5.46
% BODY WT LOSS AT NADIR [2]: −2.1% ^
% T/C MASS [2]: 0%
ACTIVITY RATING [2]: ++++ (HIGHLY ACTIVE >2.8)
DRUG DEATHS [2]: 0/5
GROWTH DELAY [2]: 31 days
LOG KILL [2]: 3.7
TUMOR FREE AT DAY 55 [2]: 0/5
% BODY WT LOSS AT NADIR (HUMAN BREAST WSU-Br-1; [4]): +14%
% T/C MASS (HUMAN BREAST WSU-Br-1; [4]): 0%
ACTIVITY RATING (HUMAN BREAST WSU-Br-1; [4]): ++++ (HIGHLY ACTIVE >2.8)
DRUG DEATHS (HUMAN BREAST WSU-Br-1; [4]): 0/5
GROWTH DELAY (HUMAN BREAST WSU-Br-1; [4]): 39 days
LOG KILL (HUMAN BREAST WSU-Br-1; [4]): 2.0
TUMOR FREE AT DAY 179 (HUMAN BREAST WSU-Br-1; [4]): 2/5
% BODY WT LOSS AT NADIR (HUMAN BREAST WSU-Br-1; [5]): +3.9%
% T/C MASS (HUMAN BREAST WSU-Br-1; [5]): 0%
ACTIVITY RATING (HUMAN BREAST WSU-Br-1; [5]): ++++ (HIGHLY ACTIVE >2.8)
DRUG DEATHS (HUMAN BREAST WSU-Br-1; [5]): 0/5
GROWTH DELAY (HUMAN BREAST WSU-Br-1; [5]): 57 days
LOG KILL (HUMAN BREAST WSU-Br-1; [5]): 2.9
TUMOR FREE AT DAY 179 (HUMAN BREAST WSU-Br-1; [5]): 2/5
inhibition of VEGF-induced neoangiogenesis [3]: very effective inhibitor
